Literature values in patent US20230257337A1, “METHOD FOR PRODUCING POLYGYLCEROL ESTERS OF POLYCARBOXYLIC ACIDS ESTERIFIED WITH OXOBUTANOL” (IOI Oleo GmbH, priority 2020, published 2023).

Conditions: even if several grams are taken

## CC(O)CC(=O)O (stereo not shown) [3-hydroxybutyric acid]
  duration of ketosis: about three to four
